Several values for one entry are separate records, joined by “and”; a condition that tells them apart may be missing. Equal entries are not always repeated. Inconclusive results and toxic doses are left out.
Tested on: BDF1 mice, P388 leukemia ip, median survival T/C
Assay: NCI In Vivo Anticancer Drug Screen. Data for tumor model P388 Leukemia (intraperitoneal) in B6D2F1 (BDF1) mice
Settings: endpoint: median survival time, higher = longer survival
In short: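 Mice carrying the transplantable tumour receive compound or vehicle. Survival is followed in each arm, and the treated measure is divided by the vehicle measure.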

[1] = dose: 50.0 mg/kg/injection, schedule: Q01DX009 (ip), vehicle: saline with Tween-80
[2] = dose: 100.0 mg/kg/injection, schedule: Q01DX009 (ip), vehicle: saline with Tween-80
[3] = dose: 200.0 mg/kg/injection, schedule: Q01DX009 (ip), vehicle: saline with Tween-80
[4] = dose: 100.0 mg/kg/injection, schedule: Q04DX003 (ip), vehicle: saline with Tween-80
[5] = dose: 200.0 mg/kg/injection, schedule: Q04DX003 (ip), vehicle: saline with Tween-80
[6] = dose: 400.0 mg/kg/injection, schedule: Q04DX003 (ip), vehicle: saline with Tween-80
[7] = dose: 12.5 mg/kg/injection, schedule: Q01DX009 (ip), vehicle: Klucel (hydroxypropylcellulose) (HPC)
[8] = dose: 6.25 mg/kg/injection, schedule: Q04DX003 (ip), vehicle: saline with Tween-80
[9] = dose: 12.5 mg/kg/injection, schedule: Q04DX003 (ip), vehicle: saline with Tween-80
[10] = dose: 25.0 mg/kg/injection, schedule: Q04DX003 (ip), vehicle: saline with Tween-80
[11] = dose: 50.0 mg/kg/injection, schedule: Q04DX003 (ip), vehicle: saline with Tween-80

For OCCN1CCN(CCCN2c3ccccc3Sc3ccc(C(F)(F)F)cc32)CC1, the T/C (dose: 0.31 mg/kg/injection, schedule: Q01DX009 (ip), vehicle: saline) was 86 % of control, the T/C (dose: 0.62 mg/kg/injection, schedule: Q01DX009 (ip), vehicle: saline) was 90 % of control and the T/C (dose: 0.82 mg/kg/injection, schedule: Q01DX009 (ip), vehicle: saline) was 86 % of control. For the same compound, the T/C (dose: 1.25 mg/kg/injection, schedule: Q01DX009 (ip), vehicle: saline) was 113 % of control and the T/C (dose: 12.5 mg/kg/injection, schedule: Q04DX003 (ip), vehicle: saline) was 105 % of control.

In the case of COC(=O)C1=C(C)NC(=O)NC1c1ccc(N(CCCl)CCCl)c(OC)c1 (stereo unspecified), the T/C (dose: 1.3 mg/kg/injection, schedule: Q01DX009 (ip), vehicle: saline with Tween-80) is reported as 169 % of control, the T/C (dose: 2.0 mg/kg/injection, schedule: Q01DX009 (ip), vehicle: saline with Tween-80) is reported as 227 % of control and the T/C (dose: 3.0 mg/kg/injection, schedule: Q01DX009 (ip), vehicle: saline with Tween-80) is reported as 220 % of control. The T/C (dose: 4.5 mg/kg/injection, schedule: Q01DX009 (ip), vehicle: saline with Tween-80) was 227 % of control.

For [F][Fe]([F])([F])([F])([F])[F], the T/C [1] was 95 % of control and the T/C [2] was 101 % of control.

O=C1NC(O)CCN1C1OC(CO)C(O)C1O (stereo unspecified) was tested, and the T/C (dose: 50.0 mg/kg/injection, schedule: Q01DX009 (ip), vehicle: saline) was 89 % of control, the T/C (dose: 100.0 mg/kg/injection, schedule: Q01DX009 (ip), vehicle: saline) was 100 % of control and 113 % of control and the T/C (dose: 100.0 mg/kg/injection, schedule: Q04DX003 (ip), vehicle: saline) was 116 % of control. The T/C (dose: 200.0 mg/kg/injection, schedule: Q01DX009 (ip), vehicle: saline) was 101 % of control and 104 % of control, the T/C (dose: 200.0 mg/kg/injection, schedule: Q04DX003 (ip), vehicle: saline) was 108 % of control and the T/C (dose: 400.0 mg/kg/injection, schedule: Q01DX009 (ip), vehicle: saline) was 100 % of control and 117 % of control. The T/C (dose: 400.0 mg/kg/injection, schedule: Q04DX003 (ip), vehicle: saline) was 95 % of control.

With COP(=O)(O)/C(C)=N/NS(=O)(=O)c1ccc(C)cc1 the T/C (dose: 25.0 mg/kg/injection, schedule: Q01DX009 (ip), vehicle: other) was 100 % of control, the T/C (dose: 50.0 mg/kg/injection, schedule: Q01DX009 (ip), vehicle: other) was 103 % of control and the T/C (dose: 100.0 mg/kg/injection, schedule: Q01DX009 (ip), vehicle: other) was 100 % of control. For the same compound, the T/C (dose: 200.0 mg/kg/injection, schedule: Q01DX009 (ip), vehicle: other) was 100 % of control and the T/C (dose: 400.0 mg/kg/injection, schedule: Q01DX009 (ip), vehicle: other) was 102 % of control.

With CCCCOn1nnc2cc(Cl)ccc21 the T/C [1] was 97 % of control, the T/C [2] was 101 % of control and the T/C [3] was 117 % of control.

For CCn1c(O)c(N=NC(=S)NC)c2ccccc21, the T/C (dose: 37.5 mg/kg/injection, schedule: Q01DX009 (ip), vehicle: saline with Tween-80) was 86 % of control.

With CC(Br)C(=O)NC(C)C(=O)O (stereo unspecified) the T/C [4] was 100 % of control, the T/C [5] was 109 % of control and the T/C [6] was 118 % of control.

In the case of O=[N+]([O-])c1cccc(OCCOc2ccc(S(=O)(=O)F)cc2)c1, the T/C [4] is reported as 100 % of control and the T/C [6] is reported as 100 % of control.

For C=C1C(=O)C2(C)OC2(C)C1C(=O)O (stereo unspecified), the T/C (dose: 1.25 mg/kg/injection, schedule: Q01DX009 (ip), vehicle: Klucel (hydroxypropylcellulose) (HPC)) was 98 % of control, the T/C (dose: 2.5 mg/kg/injection, schedule: Q01DX009 (ip), vehicle: Klucel (hydroxypropylcellulose) (HPC)) was 114 % of control and the T/C (dose: 5.0 mg/kg/injection, schedule: Q01DX009 (ip), vehicle: Klucel (hydroxypropylcellulose) (HPC)) was 120 % of control. The T/C (dose: 10.0 mg/kg/injection, schedule: Q01DX009 (ip), vehicle: Klucel (hydroxypropylcellulose) (HPC)) was 109 % of control.

In the case of O=C(O)c1cc(O)c(Br)c(O)c1, the T/C (dose: 100.0 mg/kg/injection, schedule: Q01DX001 (ip), vehicle: saline with Tween-80) is reported as 109 % of control, the T/C (dose: 200.0 mg/kg/injection, schedule: Q01DX001 (ip), vehicle: saline with Tween-80) is reported as 100 % of control and the T/C (dose: 400.0 mg/kg/injection, schedule: Q01DX001 (ip), vehicle: saline with Tween-80) is reported as 104 % of control.

For O=C1C(Cl)=C(N2CCOCC2)C(=O)c2ccccc21, the T/C (dose: 6.25 mg/kg/injection, schedule: Q01DX009 (ip), vehicle: Klucel (hydroxypropylcellulose) (HPC)) was 118 % of control, the T/C [7] was 108 % of control and the T/C (dose: 25.0 mg/kg/injection, schedule: Q01DX009 (ip), vehicle: Klucel (hydroxypropylcellulose) (HPC)) was 114 % of control.

For [CH3][Sn]([CH3])([CH3])[O]C(=O)CCl, the T/C (dose: 0.75 mg/kg/injection, schedule: Q01DX009 (ip), vehicle: saline) was 120 % of control and the T/C (dose: 1.5 mg/kg/injection, schedule: Q01DX009 (ip), vehicle: saline) was 106 % of control.

CC1=CC(=O)C=CC1(C)C(Cl)Cl (stereo unspecified) was tested, and the T/C [4] was 90 % of control, the T/C [5] was 105 % of control and the T/C [6] was 100 % of control.

In the case of COc1ccc(C(=O)C=C(C(F)(F)F)C(F)(F)F)cc1, the T/C [8] is reported as 113 % of control, the T/C [9] is reported as 100 % of control and the T/C [10] is reported as 100 % of control. The T/C [11] was 115 % of control and the T/C [4] was 110 % of control.

For COc1cc(OC)c(OC)cc1/C=C\c1ccnc2ccccc12, the T/C (dose: 133.0 mg/kg/injection, schedule: Q01DX010 (ip), vehicle: saline) was 120 % of control, the T/C (dose: 200.0 mg/kg/injection, schedule: Q01DX009 (ip), vehicle: carboxymethylcellulose (CMC)) was 116 % of control and the T/C (dose: 200.0 mg/kg/injection, schedule: Q01DX010 (ip), vehicle: saline) was 120 % of control. The T/C (dose: 400.0 mg/kg/injection, schedule: Q01DX009 (ip), vehicle: carboxymethylcellulose (CMC)) was 166 % of control and the T/C (dose: 450.0 mg/kg/injection, schedule: Q01DX010 (ip), vehicle: saline) was 120 % of control.

CCOC(=O)c1cc2c(nn3c(C)cccc23)n(CC)c1=N was tested, and the T/C (dose: 6.25 mg/kg/injection, schedule: Q01DX001 (ip), vehicle: saline) was 105 % of control, the T/C (dose: 12.5 mg/kg/injection, schedule: Q01DX001 (ip), vehicle: saline) was 122 % of control and the T/C (dose: 25.0 mg/kg/injection, schedule: Q01DX001 (ip), vehicle: saline) was 100 % of control.

For CC#CC(=O)SCCNC(=O)CC, the T/C [9] was 100 % of control, the T/C [10] was 104 % of control and the T/C [11] was 95 % of control and 100 % of control.

CC(=O)C1=C(O)C2C3c4c[nH]c5cccc(c45)CC3C(C)(C)N2C1=O (stereo unspecified) was tested, and the T/C (dose: 0.5 mg/kg/injection, schedule: Q01DX010 (ip), vehicle: saline) was 100 % of control, the T/C (dose: 1.0 mg/kg/injection, schedule: Q01DX010 (ip), vehicle: saline) was 100 % of control and the T/C (dose: 2.0 mg/kg/injection, schedule: Q01DX010 (ip), vehicle: saline) was 100 % of control. The T/C (dose: 4.0 mg/kg/injection, schedule: Q01DX010 (ip), vehicle: saline) was 110 % of control.

O=C(O)CCC1(c2ccccc2)CCCC1=O (stereo unspecified) was tested, and the T/C (dose: 0.39 mg/kg/injection, schedule: Q01DX009 (ip), vehicle: water) was 95 % of control, the T/C (dose: 0.39 mg/kg/injection, schedule: Q04DX003 (ip), vehicle: water) was 104 % of control and the T/C (dose: 0.78 mg/kg/injection, schedule: Q01DX009 (ip), vehicle: water) was 87 % of control and 122 % of control. For the same compound, the T/C (dose: 0.78 mg/kg/injection, schedule: Q04DX003 (ip), vehicle: water) was 100 % of control, the T/C (dose: 1.56 mg/kg/injection, schedule: Q01DX009 (ip), vehicle: water) was 101 % of control and 103 % of control and the T/C (dose: 1.56 mg/kg/injection, schedule: Q04DX003 (ip), vehicle: water) was 97 % of control. For the same compound, the T/C (dose: 3.12 mg/kg/injection, schedule: Q01DX009 (ip), vehicle: water) was 88 % of control, the T/C (dose: 3.12 mg/kg/injection, schedule: Q04DX003 (ip), vehicle: water) was 97 % of control and the T/C (dose: 6.25 mg/kg/injection, schedule: Q01DX009 (ip), vehicle: water) was 87 % of control and 101 % of control. For the same compound, the T/C (dose: 12.5 mg/kg/injection, schedule: Q01DX009 (ip), vehicle: water) was 97 % of control and the T/C (dose: 50.0 mg/kg/injection, schedule: Q01DX009 (ip), vehicle: water) was 87 % of control.

In the case of c1ccc(CC(Cc2ccccc2)NC2=NCCO2)cc1, the T/C [8] is reported as 100 % of control, the T/C [9] is reported as 100 % of control and the T/C [10] is reported as 100 % of control.

For OCC1OC(n2cnc3c(NO)ncnc32)C(O)C1O (stereo unspecified), the T/C [7] was 108 % of control and the T/C (dose: 100.0 mg/kg/injection, schedule: Q01DX009 (ip), vehicle: Klucel (hydroxypropylcellulose) (HPC)) was 108 % of control.

With ClCc1ccc(CCl)cc1 the T/C (dose: 7.03 mg/kg/injection, schedule: Q01DX009 (ip), vehicle: Klucel (hydroxypropylcellulose) (HPC)) was 110 % of control.

CCC(C)C1(C)OC1C(=O)OC (stereo unspecified) was tested, and the T/C [3] was 107 % of control and the T/C (dose: 400.0 mg/kg/injection, schedule: Q01DX009 (ip), vehicle: saline with Tween-80) was 107 % of control.
